Test results reported in patent US9566224B2, “Tyrosinase inhibitors” (Avon Products, Inc., priority 2013, dated 2017).

Test system: Mushroom tyrosinase
Test: Mushroom tyrosinase assay (conversion of L-Tyrosine to DOPAchrome)
Format: biochemical
Details: 25° C., 30 min, absorbance 492 nm
Protocol: Mushroom Tyrosinase Assay. Mushroom tyrosinase and L-Tyrosine were obtained from Sigma-Aldrich, Inc. (St. Louis, Mo.). The enzyme activity was measured in buffer containing 100 mM phosphate buffer pH 6.8, 5% absolute ethanol, 2 micrograms/milliliter mushroom tyrosinase, and 0.2 mg/ml L-Tyrosine. The reaction (conversion of L-Tyrosine to DOPAchrome) was conducted in triplicates at 25° C. for 30 min, and absorbance was then measured at 492 nm. Kojic Acid was used as a positive control inhibitor in these assays. Percent change in tyrosinase activity relative to vehicle control was calculated.

Tyrosinase Inhibition (percent change in tyrosinase activity compared to DMSO vehicle control) (concentration 0.001%): −36% | Tyrosinase Inhibition (percent change in tyrosinase activity compared to DMSO vehicle control) (concentration 0.01%): −75%
SMILES: Oc1ccc(C=NNC(=S)NCC2CCCO2)c(O)c1 (centres unmarked) [AV6989]
